How the values were obtained:
[1] = molecular target: T1, Arabidopsis thaliana HPPD (AtHPPD) (Arabidopsis thaliana, UniProt P93836); assay: Determination of HPPD activity in presence of HPPD inhibitor (percentage of inhibition); assay type: biochemical; details: 5.0×10^−6M of compound, compared to activity in absence of compound
T1 construct: His6 (N); made in house; host or cells: E. coli K-12 BL21
T1 sequence (P93836 1-445): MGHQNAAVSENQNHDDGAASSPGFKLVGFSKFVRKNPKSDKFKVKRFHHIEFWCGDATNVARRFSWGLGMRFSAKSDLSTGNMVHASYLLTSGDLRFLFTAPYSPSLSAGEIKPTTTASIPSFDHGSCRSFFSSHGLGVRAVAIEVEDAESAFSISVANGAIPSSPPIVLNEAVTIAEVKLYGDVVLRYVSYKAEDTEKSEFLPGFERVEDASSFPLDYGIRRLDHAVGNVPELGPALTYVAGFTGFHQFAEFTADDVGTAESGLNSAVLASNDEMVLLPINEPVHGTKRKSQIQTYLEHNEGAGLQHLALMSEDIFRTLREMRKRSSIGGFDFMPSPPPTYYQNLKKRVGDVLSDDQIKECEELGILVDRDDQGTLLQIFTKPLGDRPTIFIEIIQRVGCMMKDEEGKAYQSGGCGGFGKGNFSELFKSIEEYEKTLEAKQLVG
Protocol: (§1) The HPPD activity was checked by the standard spectrophotmetric assay (method extensively described in WO 2009/144079)
(§2) Level of tolerance of HPPD proteins obtained from different organisms was determined according to the procedure as described in PCT/EP2010/070575.
(§3) Table E1: Determination of Percentage of Inhibition in Presence of 5.0×10^−6M of Compound “4-137” Compared to the Activity Measured in Absence of Compound No. “4-137” With HPPD Originated from Arabidopsis thaliana (AtHPPD), Mutated Pseudomonas fluorescens PfHPPD-G336W, Avena sativa (AvHPPD), FMP27 (Derived from Kordia algicida) and FMP37 (Derived from Blepharisma japonicum).

[2] = test system: Avena sativa HPPD (AvHPPD); assay: as above; assay type: biochemical
Protocol: as §1, §2, §3

[3] = test system: FMP27 (HPPD derived from Kordia algicida); assay: as above; assay type: biochemical
Protocol: as §1, §2, §3

[4] = test system: FMP37 (HPPD derived from Blepharisma japonicum); assay: as above; assay type: biochemical
Protocol: as §1, §2, §3

[5] = test system: mutated Pseudomonas fluorescens PfHPPD-G336W; assay: as above; assay type: biochemical
Protocol: as §1, §2, §3

[6] = test system: transgenic tobacco plants expressing mutant Pseudomonas fluorescens HPPD G336W (PfHPPD-G336W); assay: Symptoms due to herbicide application on transgenic tobacco plants (damage classes 0-3); assay type: in vivo; details: PfHPPD-G336W line 646; 25 g Al/ha; one week after application
In short: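 Tobacco transformed via pBin19 with the HPPD gene under CaMV35S, fused to an N-terminal chloroplast transit peptide. T1 plants, potted at 3 weeks and grown 2 more weeks, sprayed with N-(tetrazol-4-yl)/N-(triazol-3-yl)arylcarboxamides (g AI/ha) on 8–10 plants from 1–3 events per transgene. Damage scored 0 (none) to 3 (very strong), versus non-transformed plants.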

[7] = test system: soybean plants expressing Pseudomonas fluorescens G336W mutant, FMP 27 and FMP 37; assay: Tolerance to HPPD inhibitors of soybean plants expressing tolerant HPPD enzymes; assay type: in vivo; details: T1 soybean plants; one week after application
In short: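 T1 soybean lines carry chloroplast-targeted HPPD genes from Blepharisma japonicum or Kordia algicida under the CaMV35S promoter, with T0 events selected for tembotrione tolerance. T1 seedlings are raised singly in pots under standard conditions. Plants are sprayed two weeks later with N-(tetrazol-4-yl)- or N-(triazol-3-yl)arylcarboxamides.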

## Cc1c(C(=O)Nc2nnnn2C)ccc(C(F)(F)F)c1S(C)(=O)=O [Compound 4-137]
[1]
  Inhibition %: 100%
[2]; 5.0×10^−6M of compound, compared to activity in absence of compound, AvHPPD
  Inhibition %: 93%
[2]; AvHPPD versus AtHPPD, identical experimental conditions
  tolerance/sensitivity of the HPPD to the inhibitor compared to Arabidopsis thaliana HPPD: less sensitive
[3]; 5.0×10^−6M of compound, compared to activity in absence of compound, FMP27
  Inhibition %: 90%
[3]; FMP27 versus AtHPPD, identical experimental conditions
  tolerance/sensitivity of the HPPD to the inhibitor compared to Arabidopsis thaliana HPPD: less sensitive
[4]; 5.0×10^−6M of compound, compared to activity in absence of compound, FMP37
  Inhibition %: 82%
[4]; FMP37 versus AtHPPD, identical experimental conditions
  tolerance/sensitivity of the HPPD to the inhibitor compared to Arabidopsis thaliana HPPD: less sensitive
[5]; 5.0×10^−6M of compound, compared to activity in absence of compound, PfHPPD-G336W
  Inhibition %: 92%
[5]; PfHPPD-G336W versus AtHPPD, identical experimental conditions
  tolerance/sensitivity of the HPPD to the inhibitor compared to Arabidopsis thaliana HPPD: less sensitive
[6]
  number of plants with Damage 0 (No damage): 5
  number of plants with Damage 1 (Light and transient damage): 2
  number of plants with Damage 2 (Strong damage): 0
  number of plants with Damage 3 (Very strong damage): 3
[7]
  tolerance of transgenic plants compared to the wild-type soybean plants: superior tolerance

Reference: patent publication US9078446B2, “Use of N-(tetrazol-4-yl)- or N-(triazol-3-yl)arylcarboxamides or their salts for controlling unwanted plants in areas of transgenic crop plants being tolerant to HPPD inhibitor herbicides” (BAYER INTELLECTUAL PROPERTY GMBH, priority 2011, dated 2015)
